Experimental data: patent US5093480A, “Azoxy compounds” (Kowa Company, Ltd., priority 1988, dated 1992)
Converted amounts (≈) assume the structure as drawn.

Assays:
[1] = test system: Candida albicans; assay: Minimum inhibitory concentration, agar dilution method, Candida albicans; type: cell-based; details: Sabouraud's dextrose medium; for MIC: Candida albicans
Experimental: (§1) The minimum inhibitory concentrations (μg/ml), relative to test fungi, of some of the typical compounds in this invention produced in Examples to be described later were measured, and the results are tabulated below.
(§2) *The minimum inhibitory concentrations were measured by an agar dilution
(§3) method using a Sabouraud's dextrose medium in accordance with a standard
(§4) method of Nippon Kagaku Ryoho Gakkai (Chemical Therapy Academy).

[2] = test system: Cystococcus neoformans; assay: Minimum inhibitory concentration, agar dilution method, Cystococcus neoformans; type: cell-based; details: Sabouraud's dextrose medium
Experimental: as §1, §2, §3, §4

[3] = test system: Trichophyton mentagrophytes; assay: Minimum inhibitory concentration, agar dilution method, Trichophyton mentagrophytes; type: cell-based; details: Sabouraud's dextrose medium; for MIC: Trichophyton mentagrophytes
Experimental: as §1, §2, §3, §4

[4] = test system: Trichophyton rubrus; assay: Minimum inhibitory concentration, agar dilution method, Trichophyton rubrus; type: cell-based; details: Sabouraud's dextrose medium; for MIC: Trichophyton
Experimental: as §1, §2, §3, §4

[5] = Acute toxicity to mice; details: mouse, in vivo, intravenous administration
Experimental: The compound in this invention is low in toxicity. For example, acute toxicities LD50 to mice of the compounds in Examples 1 and 4 to be described later are both more than 100 mg/kg (intravenous administration).

[6] = Stability in serum (thin layer chromatography and biological verification using Candida albicans); type: in vitro ADME; details: left to stand in serum at 37° C. for 4 hours; TLC and biological verification using Candida albicans

Compound	MIC [1] [µg/mL]	MIC [2] [µg/mL]	MIC [3] [µg/mL]	MIC [4] [µg/mL]	Minimum inhibitory concentration, Candida albicans [1] [µg/mL]	Minimum inhibitory concentration, Cystococcus neoformans [2] [µg/mL]	Minimum inhibitory concentration, Trichophyton mentagrophytes [3] [µg/mL]	Minimum inhibitory concentration, Trichophyton rubrus [4] [µg/mL]	LD50 [5] [mg/kg]	decomposition in serum [6]
CCCC/C=C/[N+]([O-])=NC(C)C(C)=NNC(=O)Cc1ccc(Cl)cc1 (stereo not shown) [Example 74, 2-(p-chlorophenylacetylhydrazono)-2-deoxo-KA-7367A]	1.6 (≈ 4.39 µM)	6.25 (≈ 17.1 µM)	6.25 (≈ 17.1 µM)	3.1 (≈ 8.5 µM)						
CCCC/C=C/[N+]([O-])=NC(C)C(C)=NNC(=O)C(c1ccc(Cl)cc1)c1ccccc1Cl (stereo not shown) [Example 78, 2-(2,4'-dichlorodiphenylacetylhydrazono)-2-deoxo-KA-7367A]	0.8 (≈ 1.68 µM)	6.25 (≈ 13.1 µM)	3.1 (≈ 6.52 µM)	3.1 (≈ 6.52 µM)						
CCCC/C=C/[N+]([O-])=NC(C)C(C)=NNC(N)=S (stereo not shown) [Example 35, 2-thiosemicarbazono-2-deoxo-KA-7367A]	3.1 (≈ 11.4 µM)	6.25 (≈ 23 µM)	6.25 (≈ 23 µM)	3.1 (≈ 11.4 µM)						
2-(2,4-dichlorodiphenylacetylhydrazono)-2-dioxo-KA-7367A [Example 79]					1.6	6.25	3.1	1.6		
CCCC/C=C/[N+]([O-])=NC(C)C(C)=NNC(=O)c1ccncc1 (stereo not shown) [Example 70, 2-isonicotinoylhydrazono-2-deoxo-KA-7367A]	25 (≈ 78.8 µM)	50 (≈ 158 µM)	25 (≈ 78.8 µM)	12.5 (≈ 39.4 µM)						
CCCC/C=C/[N+]([O-])=NC(C)C(C)=NNC(=O)CN1CCN(C(C)=O)CC1 (stereo not shown) [Example 53, 2-(4-acetylpiperazinyl-acetylhydrazono)-2-deoxo-KA-7367A]	3.1 (≈ 8.15 µM)	12.5 (≈ 32.9 µM)	6.25 (≈ 16.4 µM)	3.1 (≈ 8.15 µM)						
CCCC/C=C/[N+]([O-])=NC(C)C(C)=NO (stereo not shown) [Example 1, 2-hydroxyimino-2-deoxo-KA-7367A]	12.5 (≈ 58.6 µM)	25 (≈ 117 µM)	12.5 (≈ 58.6 µM)	3.1 (≈ 14.5 µM)					> 100	
CCCC/C=C/[N+]([O-])=NC(C)C(C)=NNC(=O)CN1CCN(C(=O)Cc2c(Cl)cccc2Cl)CC1 (stereo not shown) [Example 54, 2-[4-(2,6-dichlorophenylacetyl)-1-piperazinylacetylhydrazino]-2-deoxo-KA-7367A]	3.1 (≈ 5.9 µM)	12.5 (≈ 23.8 µM)	6.25 (≈ 11.9 µM)	3.1 (≈ 5.9 µM)						
CCCC/C=C/[N+]([O-])=NC(C)C(C)=NNC(=O)Cn1ccnc1 (stereo not shown) [Example 47, 2-(1-imidazolylacetylhydrazono)-2-deoxo-KA-7367A]	6.25 (≈ 19.5 µM)	50 (≈ 156 µM)	25 (≈ 78 µM)	12.5 (≈ 39 µM)						
CCCC/C=C/[N+]([O-])=NC(C)C(C)=NNC(=O)c1ccco1 (stereo not shown) [Example 67, 2-(2-furylcarbonylhydrazono)-2-deoxo-KA-7367A]	1.6 (≈ 5.22 µM)	6.25 (≈ 20.4 µM)	3.1 (≈ 10.1 µM)	3.1 (≈ 10.1 µM)						
CCCC/C=C/[N+]([O-])=NC(C)C(C)=NOC(C)(C)C(=O)O (stereo not shown) [Example 5, 2-(1-carboxy-1-ethylmethoxyimino)-2-deoxo-KA-7367A]	12.5 (≈ 41.8 µM)	25 (≈ 83.5 µM)	12.5 (≈ 41.8 µM)	3.1 (≈ 10.4 µM)						
CCCC/C=C/[N+]([O-])=NC(C)C(C)=NOC(=O)c1ccccc1 (stereo not shown) [Example 25, 2-benzoyloxyimino-2-deoxo-KA-7367A]	50 (≈ 158 µM)	50 (≈ 158 µM)	12.5 (≈ 39.4 µM)	3.1 (≈ 9.77 µM)						
CCCC/C=C/[N+]([O-])=NC(C)C(C)=NNC(=O)c1cccnc1 (stereo not shown) [Example 71, 2-nicotinoylhydrazono-2-deoxo-KA-7367A]	6.25 (≈ 19.7 µM)	12.5 (≈ 39.4 µM)	6.25 (≈ 19.7 µM)	6.25 (≈ 19.7 µM)						
2-thenoylhydrazono-2-deoxo-KA-7367A [Example 68]					3.2	6.25	6.25	6.25		
CCCC/C=C/[N+]([O-])=NC(C)C(C)=O (stereo not shown) [KA-7367A]										almost decomposed
CCCC/C=C/[N+]([O-])=NC(C)C(C)=NNC(=O)Cc1ccc(Cl)cc1Cl (stereo not shown) [Example 49, 2-(2,4-dichlorophenylacetylhydrzono)-2-deoxo-KA-7367A]	1.6 (≈ 4.01 µM)	6.25 (≈ 15.7 µM)	3.1 (≈ 7.76 µM)	1.6 (≈ 4.01 µM)						
CCCC/C=C/[N+]([O-])=NC(C)C(C)=NNC(=O)Cc1c(F)cccc1F (stereo not shown) [Example 61, 2-[(2,6-difluorophenyl)acetylhydrazono]-2-deoxo-KA-7367A]	0.8 (≈ 2.18 µM)	6.25 (≈ 17.1 µM)	3.1 (≈ 8.46 µM)	1.6 (≈ 4.37 µM)						
CCCC/C=C/[N+]([O-])=NC(C)C(C)=NNC(=O)Cc1cccnc1 (stereo not shown) [Example 48, 2-(3-pyridylacetylhydrazono)-2-deoxo-KA-7367A]	1.6 (≈ 4.83 µM)	6.25 (≈ 18.9 µM)	3.1 (≈ 9.35 µM)	1.6 (≈ 4.83 µM)						
CCCC/C=C/[N+]([O-])=NC(C)C(C)=NOC(=O)c1ccc(Cl)cc1 (stereo not shown) [Example 27, 2-(p-chlorobenzoyloxyimino)-2-deoxo-KA-7367A]	100 (≈ 284 µM)	100 (≈ 284 µM)	12.5 (≈ 35.5 µM)	6.25 (≈ 17.8 µM)						
CCCC/C=C/[N+]([O-])=NC(C)C(C)=NNC(N)=O (stereo not shown) [Example 34, 2-semicarbazono-2-deoxo-KA-7367A]	3.1 (≈ 12.1 µM)	3.1 (≈ 12.1 µM)	3.1 (≈ 12.1 µM)	1.6 (≈ 6.27 µM)						
CCCC/C=C/[N+]([O-])=NC(C)C(C)=NNC(=O)Cc1c(OC)cccc1OC (stereo not shown) [Example 62, 2-[(2,6-dimethoxyphenyl)acetylhydrazono]-2-deoxo-KA-7367A]	1.6 (≈ 4.1 µM)	12.5 (≈ 32 µM)	6.25 (≈ 16 µM)	3.1 (≈ 7.94 µM)						
CCCC/C=C/[N+]([O-])=NC(C)C(C)=NNC(C)=O (stereo not shown) [Example 43, 2-acetylhydrazono-2-deoxo-KA-7367A]	1.6 (≈ 6.29 µM)	3.1 (≈ 12.2 µM)	6.25 (≈ 24.6 µM)	3.1 (≈ 12.2 µM)						
CCCC/C=C/[N+]([O-])=NC(C)C(C)=NOC(C)=O (stereo not shown) [Example 24, 2-acetoxyimino-2-deoxo-KA-7367A]	25 (≈ 97.9 µM)	50 (≈ 196 µM)	12.5 (≈ 49 µM)	6.25 (≈ 24.5 µM)						
CCCC/C=C/[N+]([O-])=NC(C)C(C)=NOCC(=O)O (stereo not shown) [Example 4, 2-carboxymethoxyimino-2-deoxo-KA-7367A]	12.5 (≈ 46.1 µM)	25 (≈ 92.1 µM)	12.5 (≈ 46.1 µM)	3.1 (≈ 11.4 µM)					> 100	
CCCC/C=C/[N+]([O-])=NC(C)C(C)=NNC(=O)Cc1cccc2ccccc12 (stereo not drawn) [Example 52, 2-(alpha-naphthylacetylhydrazono)-2-deoxo-KA-7367A]	3.1 (≈ 8.15 µM)	12.5 (≈ 32.9 µM)	6.25 (≈ 16.4 µM)	3.1 (≈ 8.15 µM)						
CCCC/C=C/[N+]([O-])=NC(C)C(C)=NOCCOCC (stereo not shown) [Example 3, 2-(2-ethoxy-ethoxyimino)-2-dioxo-KA-7367A]	25 (≈ 87.6 µM)	50 (≈ 175 µM)	25 (≈ 87.6 µM)	6.25 (≈ 21.9 µM)						
